In brackets after ≈: the same amount, converted by molar mass. Several values for one entry are separate records, joined by “and”; a condition that tells them apart may be missing. Identical values can stand only once. Blank lines part the entries; values can stand above or below the molecule they belong to.
Legend:
Test in all cases: ≥ marks a high value that may be exact or a test limit, other limits are often not marked, values filed in µg/mL are converted to µM
[1] = test system: Candida albicans NCTC 3179
[2] = test system: Escherichia coli ATCC 25922
[3] = test system: Staphylococcus aureus ATCC 25923
Escherichia coli BL21 = test system: Escherichia coli BL21
[4] = test system: Pseudomonas aeruginosa PAO1
Pseudomonas syringae = test system: Pseudomonas syringae
[5] = test system: Streptococcus pyogenes GAS M1T1
[6] = test system: Xanthomonas axonopodis pv. phaseoli ATCC 9563
[7] = test system: Acinetobacter baumannii ATCC 15308
Citrobacter sp. = test system: Citrobacter sp.
Enterobacter cloacae = test system: Enterobacter cloacae
Klebsiella pneumoniae = test system: Klebsiella pneumoniae
[8] = test system: Pseudomonas aeruginosa ATCC 15442
Staphylococcus aureus = test system: Staphylococcus aureus
Streptococcus pneumoniae = test system: Streptococcus pneumoniae
[9] = test system: Bacillus subtilis ATCC 6633
[10] = test system: Candida albicans ATCC 10231
[11] = test system: Candida parapsilosis ATCC 22019
Cryptococcus neoformans = test system: Cryptococcus neoformans
[12] = test system: Escherichia coli ATCC 9637
[13] = test system: Klebsiella pneumoniae ATCC 27736
[14] = test system: Pseudomonas aeruginosa ATCC BAA-427
[15] = test system: Staphylococcus aureus ATCC 29213
[16] = test system: Staphylococcus aureus ATCC 33592
[17] = test system: Staphylococcus aureus ATCC 700698
[18] = test system: Staphylococcus aureus ATCC 700699
[19] = test system: Staphylococcus aureus ATCC BAA-44
[20] = test system: Escherichia coli KpC+001812446
[21] = test system: Klebsiella pneumoniae ATCC 13883
[22] = test system: Klebsiella pneumoniae KpC+001825971

MIC (Escherichia coli BL21): 4 µM (≈ 12.7 µg/mL)
MIC (Pseudomonas syringae): 8 µM (≈ 25.5 µg/mL)
MIC [5]: 8 µM (≈ 25.5 µg/mL)
MIC [6]: 1 µM (≈ 3.19 µg/mL)
Compound: CC[C@H](C)[C@H](NC(=O)[C@H](CCCCN)NC(=O)[C@H](CC(N)=O)NC(=O)[C@H](CCCCN)NC(=O)[C@H](CC(C)C)NC(=O)[C@H](Cc1ccc(O)cc1)NC(=O)[C@H](CCC(N)=O)NC(=O)[C@H](CCCN=C(N)N)NC(=O)[C@@H](NC(=O)[C@@H](NC(=O)[C@H](CCCCN)NC(=O)[C@H](CCCCN)NC(=O)[C@H](Cc1c[nH]c2ccccc12)NC(=O)[C@H](C)N)[C@@H](C)O)[C@@H](C)CC)C(=O)N[C@@H](CCCCN)C(=O)N[C@@H](CCCCN)C(=O)N[C@@H](CCCCN)C(=O)N[C@@H](Cc1c[nH]c2ccccc12)C(=O)N[C@@H](CCCN=C(N)N)C(=O)N[C@@H](CCCCN)C(=O)N[C@@H](C)C(=O)N[C@H](C(=O)N[C@H](C(=O)N[C@@H](C)C(=O)N[C@@H](Cc1c[nH]c2ccccc12)C(=O)O)[C@@H](C)CC)C(C)C [AWKKTIRQYLKNKIKKKWRKAVIAW]

MIC [7]: 13.5 µM (≈ 31.2 µg/mL)
MIC (Citrobacter sp.): ≥ 108 µM
MIC (Enterobacter cloacae): ≥ 108 µM
MIC [2]: 3.38 µM (≈ 7.81 µg/mL)
MIC (Klebsiella pneumoniae): > 108 µM
MIC [8]: 13.5 µM (≈ 31.2 µg/mL)
MIC [3]: 3.38 µM (≈ 7.81 µg/mL)
MIC (Staphylococcus aureus): 3.38 µM (≈ 7.81 µg/mL)
MIC (Streptococcus pneumoniae): 3.38 µM (≈ 7.81 µg/mL)
Compound: CC[C@H](C)[C@H](NC(=O)[C@H](CC(C)C)NC(=O)CNC(=O)CNC(=O)[C@H](CC(C)C)NC(=O)[C@@H](N)Cc1ccccc1)C(=O)N[C@@H](CCCCN)C(=O)N[C@@H](Cc1c[nH]c2ccccc12)C(=O)N[C@@H](CCCCN)C(=O)N[C@@H](Cc1c[nH]c2ccccc12)C(=O)N1CCC[C@H]1C(=O)N[C@@H](Cc1c[nH]c2ccccc12)C(=O)N[C@@H](Cc1c[nH]c2ccccc12)C(=O)N1CCC[C@H]1C(=O)N[C@@H](Cc1c[nH]c2ccccc12)C(=O)N[C@@H](CCCN=C(N)N)C(=O)N[C@@H](CCCN=C(N)N)C(N)=O [FLGGLIKWKWPWWPWRR]

MIC [9]: 7.6 µM (≈ 12.5 µg/mL)
MIC [10]: 6 µM (≈ 9.84 µg/mL)
MIC [11]: 6 µM (≈ 9.84 µg/mL)
MIC (Cryptococcus neoformans): 3 µM (≈ 4.92 µg/mL)
MIC [2]: 3.8 µM (≈ 6.23 µg/mL)
MIC [12]: 6.25 µM (≈ 10.3 µg/mL)
MIC [13]: 7.6 µM (≈ 12.5 µg/mL)
MIC [14]: 6.8 µM (≈ 11.2 µg/mL)
MIC [3]: 3.8 µM and 7.6 µM
MIC [15]: 2 µM (≈ 3.28 µg/mL)
MIC [16]: 2 µM (≈ 3.28 µg/mL)
MIC [17]: 2 µM (≈ 3.28 µg/mL)
MIC [18]: 2 µM (≈ 3.28 µg/mL)
MIC [19]: 2 µM (≈ 3.28 µg/mL)
Compound: CC[C@H](C)[C@H](NC(=O)[C@H](CCCN=C(N)N)NC(=O)CNC(=O)[C@H](CC(C)C)NC(=O)[C@H](Cc1ccccc1)NC(=O)[C@H](CCCCN)NC(=O)[C@H](CO)NC(=O)[C@H](Cc1ccccc1)NC(=O)[C@H](Cc1c[nH]c2ccccc12)NC(=O)[C@H](CCCCN)NC(=O)[C@@H](NC(=O)[C@@H](N)Cc1ccccc1)C(C)C)C(=O)N[C@@H](CC(C)C)C(N)=O [FVKWFSKFLGRIL]

MIC [2]: 4 µM (≈ 8.09 µg/mL)
MIC [20]: 8 µM (≈ 16.2 µg/mL)
MIC [21]: ≥ 32 µM
MIC [22]: 8 µM (≈ 16.2 µg/mL)
Compound: CC[C@H](C)[C@H](NC(=O)[C@H](CCCCN)NC(=O)[C@H](CCCCN)NC(=O)[C@H](Cc1ccccc1)NC(=O)[C@H](CC(C)C)NC(=O)[C@H](CCCCN)NC(=O)[C@H](Cc1c[nH]c2ccccc12)NC(=O)[C@H](CCCCN)NC(=O)[C@H](Cc1cnc[nH]1)NC(=O)CNC(=O)CN)C(=O)NCC(=O)N[C@@H](C)C(=O)N[C@H](C(=O)N[C@@H](CC(C)C)C(=O)N[C@@H](CCCCN)C(=O)N[C@H](C(=O)N[C@@H](CC(C)C)C(=O)O)C(C)C)C(C)C [GGHKWKLFKKIGAVLKVL]

Further lines, the molecule ahead of its results:

Compound: CC[C@H](C)[C@H](NC(=O)[C@@H](NC(=O)[C@H](Cc1ccccc1)NC(=O)CNC(=O)[C@@H](NC(=O)[C@H](CC(N)=O)NC(=O)[C@H](C)N)C(C)C)C(C)C)C(=O)N[C@@H](CCC(N)=O)C(=O)N[C@@H](CC(C)C)C(=O)N[C@@H](CCC(N)=O)C(=O)N[C@@H](C)C(=O)N[C@@H](CCCN=C(N)N)C(=O)N[C@@H](CC(C)C)C(=O)N[C@@H](CCCN=C(N)N)C(=O)NCC(=O)N[C@@H](Cc1ccccc1)C(=O)N[C@@H](CC(C)C)C(=O)N[C@H](C(=O)N[C@@H](CCCN=C(N)N)C(=O)N[C@@H](CCC(N)=O)C(=O)N[C@@H](CCCCN)C(=O)N[C@@H](Cc1ccccc1)C(=O)N[C@@H](C)C(=O)O)C(C)C [ANVGFVIQLQARLRGFLVRQKFA]
MIC [1]: ≥ 95 µM
MIC [2]: 1.71 µM (≈ 4.5 µg/mL)
MIC [3]: 1.71 µM (≈ 4.5 µg/mL)

Compound: CC[C@H](C)[C@H](NC(=O)[C@H](CCCCN)NC(=O)[C@H](CC(N)=O)NC(=O)[C@H](CCCCN)NC(=O)[C@H](CC(C)C)NC(=O)[C@H](Cc1ccc(O)cc1)NC(=O)[C@H](CCC(N)=O)NC(=O)[C@H](CCCN=C(N)N)NC(=O)[C@@H](NC(=O)[C@@H](NC(=O)[C@H](CCCCN)NC(=O)[C@H](CCCCN)NC(=O)[C@H](Cc1c[nH]c2ccccc12)NC(=O)[C@H](C)N)[C@@H](C)O)[C@@H](C)CC)C(=O)N[C@@H](CCCCN)C(=O)N[C@@H](CCCCN)C(=O)N[C@@H](CCCCN)C(=O)NCC(=O)N[C@@H](CCCN=C(N)N)C(=O)N[C@@H](CCCCN)C(=O)N[C@@H](C)C(=O)N[C@H](C(=O)N[C@H](C(=O)N[C@@H](C)C(=O)N[C@@H](Cc1c[nH]c2ccccc12)C(=O)O)[C@@H](C)CC)C(C)C [AWKKTIRQYLKNKIKKKGRKAVIAW]
MIC (Escherichia coli BL21): 8 µM (≈ 24.5 µg/mL)
MIC [4]: 10 µM (≈ 30.6 µg/mL)
MIC (Pseudomonas syringae): 8 µM (≈ 24.5 µg/mL)
MIC [5]: 8 µM (≈ 24.5 µg/mL)
MIC [6]: 1 µM (≈ 3.06 µg/mL)

Compound: CC[C@H](C)[C@H](NC(=O)[C@H](CCSC)NC(=O)[C@H](C)NC(=O)[C@@H]1CCCN1C(=O)[C@@H](NC(=O)[C@@H]1CCCN1C(=O)[C@H](CCCCN)NC(=O)[C@@H](NC(=O)[C@H](CC(C)C)NC(=O)CNC(=O)CNC(=O)[C@H](CC(C)C)NC(=O)[C@@H](N)Cc1ccccc1)[C@@H](C)CC)C(C)C)C(=O)N[C@H]1CSSC[C@@H](C(=O)O)NC(=O)[C@H](CCCCN)NC(=O)[C@H](CCCCN)NC(=O)[C@H](CCCN=C(N)N)NC(=O)[C@H](C(C)C)NC(=O)[C@H](C)NC1=O [FLGGLIKPVPAMICAVRKKC]
MIC [7]: ≥ 117 µM
MIC (Citrobacter sp.): ≥ 117 µM
MIC (Enterobacter cloacae): ≥ 117 µM
MIC [2]: > 117 µM
MIC (Klebsiella pneumoniae): > 117 µM
MIC [8]: ≥ 117 µM
MIC [3]: > 117 µM
MIC (Staphylococcus aureus): > 117 µM
MIC (Streptococcus pneumoniae): ≥ 117 µM

Compound: CC[C@H](C)[C@H](NC(=O)[C@H](CCCCN)NC(=O)[C@@H](NC(=O)[C@@H](NC(=O)[C@H](CO)NC(=O)[C@H](CC(N)=O)NC(=O)[C@@H](NC(=O)[C@H](CC(N)=O)NC(=O)[C@@H](N)CCCCN)C(C)C)[C@@H](C)CC)C(C)C)C(=O)N[C@@H](CCC(N)=O)C(=O)N[C@@H](C)C(=O)N[C@@H](Cc1ccccc1)C(=O)N[C@@H](Cc1ccccc1)C(=O)N[C@@H](CCCN=C(N)N)C(=O)N[C@@H](C)C(=O)N[C@@H](CCCN=C(N)N)C(=O)N[C@@H](CCCCN)C(=O)N[C@@H](C)C(=O)N[C@@H](CCC(N)=O)C(=O)N[C@@H](CC(=O)O)C(=O)N[C@@H](CC(=O)O)C(=O)N[C@@H](Cc1ccc(O)cc1)C(=O)N[C@@H](CCCN=C(N)N)C(=O)O [KNVNSIVKIQAFFRARKAQDDYR]
MIC [1]: 30.3 µM (≈ 84 µg/mL)
MIC [2]: 3.54 µM (≈ 9.8 µg/mL)
MIC [3]: 4.7 µM (≈ 13 µg/mL)

Source: DBAASP
